According to ChEMBL document CHEMBL6078723, “Novel steroidal β-carboline derivatives as promising antibacterial candidates against methicillin-resistant Staphylococcus aureus” (Eur J Med Chem, 2025):
Active and inactive are the calls of the source.

How the values were obtained:
Staphylococcus aureus [1] = test: Antibacterial activity against methicillin-resistant Staphylococcus aureus CGMCC1.12409 in presence of K+ (reference value: 0.5 ug/ml); type: functional
Staphylococcus aureus [2] = test: Antibacterial activity against methicillin-resistant Staphylococcus aureus CGMCC1.12409 infected in mouse model assessed as reduction in abscesses in subcutaneous tissues at 10 mg/kg measured for 5 days; type: functional, organism-based; settings: time 5.0 day
Staphylococcus aureus [3] = test: Antibacterial activity against methicillin-resistant Staphylococcus aureus ATCC 33591 in presence of Zn2+ (reference value: 1 ug/ml); type: functional
HeLa = test: Cytotoxicity against human HeLa cells at 40 uM by CCK8 assay relative to control; type: toxicity, cell-based
Staphylococcus aureus [4] = test: Antibacterial activity against methicillin-resistant Staphylococcus aureus CGMCC1.12409 in presence of Na+ (reference value: 0.5 ug/ml); type: functional
Staphylococcus aureus [5] = test: Antibiofilm activity against Staphylococcus aureus CGMCC1.8721 by crystal violet staining based analysis; type: functional, organism-based
Staphylococcus aureus [6] = test: Antibacterial activity against Staphylococcus aureus CGMCC1.8721 in presence of K+ (reference value: 0.5 ug/ml); type: functional
Staphylococcus aureus [7] = test: Antibacterial activity against methicillin-resistant Staphylococcus aureus ATCC 43300 in presence of Na+ (reference value: 0.5 ug/ml); type: functional
Staphylococcus aureus [8] = test: Induction of ROS accumulation in Staphylococcus aureus CGMCC1.8721 by DCFH-DA dye based analysis; type: functional, organism-based
Staphylococcus aureus [9] = test: Antibacterial activity against methicillin-resistant Staphylococcus aureus ATCC 43300 in presence of Zn2+ (reference value: 0.5 ug/ml); type: functional
Staphylococcus aureus [10] = test: Antibacterial activity against methicillin-resistant Staphylococcus aureus ATCC 33591 in presence of Ca2+ (reference value: 1 ug/ml); type: functional
Staphylococcus aureus [11] = test: Antibacterial activity against methicillin-resistant Staphylococcus aureus CGMCC1.12409 at 37.5 degreeC (reference value: 0.5 ug/ml); type: functional
Staphylococcus aureus [12] = test: Induction of morphological change in Staphylococcus aureus CGMCC1.8721 assessed as depression of cell surface at 4 times MIC by […] SEM analysis; type: functional, organism-based
Staphylococcus aureus [13] = test: Induction of morphological change in Staphylococcus aureus CGMCC1.8721 assessed as leakage of intracellular components at 4 times MIC by […] SEM analysis; type: functional, organism-based
Staphylococcus aureus [14] = test: Antibacterial activity against methicillin-resistant Staphylococcus aureus ATCC 43300 at pH 6.5 (reference value: 0.5 ug/ml); type: functional
Staphylococcus aureus [15] = test: Antibacterial activity against methicillin-resistant Staphylococcus aureus CGMCC1.12409 at 36.5 degreeC (reference value: 0.5 ug/ml); type: functional
Staphylococcus aureus [16] = test: Induction of resistance development in Staphylococcus aureus CGMCC1.8721 at sub-lethal concentration following serial passages for 30 days; type: functional, organism-based; settings: time 30.0 day
Staphylococcus aureus [17] = test: Antibacterial activity against methicillin-resistant Staphylococcus aureus ATCC 43300 in presence of Fe3+ (reference value: 0.5 ug/ml); type: functional
Staphylococcus aureus [18] = test: Antibacterial activity against Staphylococcus aureus CGMCC1.8721 in presence of H2PO4- (reference value: 0.5 ug/ml); type: functional
Staphylococcus aureus [19] = test: Antibacterial activity against methicillin-resistant Staphylococcus aureus ATCC 33591 at pH 8 (reference value: 1 ug/ml); type: functional
Staphylococcus aureus [20] = test: Antibacterial activity against methicillin-resistant Staphylococcus aureus CGMCC1.12409 infected in mouse model assessed as reduction in bacterial load at infection site at 5 mg/kg measured for 5 days relative to control; type: functional; set-up: scale not given: the % may be the effect or the level left; settings: time 5 day
Staphylococcus aureus [21] = test: Antibacterial activity against methicillin-resistant Staphylococcus aureus ATCC 43300 at 37.5 degreeC (reference value: 0.5 ug/ml); type: functional
Staphylococcus aureus [22] = test: Antibacterial activity against methicillin-resistant Staphylococcus aureus ATCC 33591 at 36.5 degreeC (reference value: 1 ug/ml); type: functional
HEK-293T = test: Cytotoxicity against HEK293T cells at 40 uM by CCK8 assay relative to control; type: toxicity, cell-based; settings: human
Staphylococcus aureus [23] = test: Induction of morphological change in Staphylococcus aureus CGMCC1.8721 assessed as appearance of surface folds at MIC by […] SEM analysis; type: functional, organism-based
Staphylococcus aureus [24] = test: Antibacterial activity against methicillin-resistant Staphylococcus aureus ATCC 33591 in presence of Mg2+ (reference value: 1 ug/ml); type: functional
Staphylococcus aureus [25] = test: Antibacterial activity against methicillin-resistant Staphylococcus aureus CGMCC1.12409 in presence of Ca2+ (reference value: 0.5 ug/ml); type: functional
Staphylococcus aureus [26] = test: Antibacterial activity against methicillin-resistant Staphylococcus aureus CGMCC1.12409 infected in mouse model assessed as smooth dorsal skin at 10 mg/kg measured for 5 days; type: functional, organism-based; settings: route sc, time 5.0 day
Staphylococcus aureus [27] = test: Antibacterial activity against Staphylococcus aureus CGMCC1.8721 in presence of Na+ (reference value: 0.5 ug/ml); type: functional
Staphylococcus aureus [28] = test: Antibacterial activity against methicillin-resistant Staphylococcus aureus ATCC 33591 in presence of Fe2+ (reference value: 1 ug/ml); type: functional
Staphylococcus aureus [29] = test: Antibacterial activity against methicillin-resistant Staphylococcus aureus ATCC 43300 in presence of Ca2+ (reference value: 0.5 ug/ml); type: functional
Staphylococcus aureus [30] = test: Antibacterial activity against Staphylococcus aureus CGMCC1.8721 in presence of phosphatidylcholine; type: functional, organism-based
Staphylococcus aureus [31] = test: Bactericidal activity against Staphylococcus aureus CGMCC1.8721 at 4 to 8 times MIC incubated for 0.5 to 1 hr by time kill assay relative to control; type: functional; settings: time 0.5-1 hrs
Staphylococcus aureus [32] = test: Induction of bacterial regrowth of Staphylococcus aureus CGMCC1.8721 at 4 to 8 times MIC measured after 24 hrs by time kill assay; type: functional, organism-based
Staphylococcus aureus [33] = test: Antibacterial activity against Staphylococcus aureus CGMCC1.8721; type: functional
Staphylococcus aureus [34] = test: Antibacterial activity against methicillin-resistant Staphylococcus aureus CGMCC1.12409 infected in mouse model assessed as reduction in neutrophils in skin tissues at 5 to 10 mg/kg measured for 5 days by H and E staining based analysis; type: functional, organism-based; settings: dose 5-10 mg/kg, time 5.0 day
Staphylococcus aureus [35] = test: Induction of cell membrane damage in Staphylococcus aureus CGMCC1.8721 assessed as red fluorescence at 4 times MIC by SYTO9/PI staining based CLSM analysis; type: functional, organism-based
Staphylococcus aureus [36] = test: Antibacterial activity against Staphylococcus aureus CGMCC1.8721 at 36.5 degreeC (reference value: 0.5 ug/ml); type: functional
Staphylococcus aureus [37] = test: Antibacterial activity against methicillin-resistant Staphylococcus aureus ATCC 43300 in presence of Mg2+ (reference value: 0.5 ug/ml); type: functional
Staphylococcus aureus [38] = test: Antibacterial activity against Staphylococcus aureus CGMCC1.8721 in presence of LTA; type: functional, organism-based
Staphylococcus aureus [39] = test: Antibacterial activity against Staphylococcus aureus CGMCC1.8721 at 37.5 degreeC (reference value: 0.5 ug/ml); type: functional
Staphylococcus aureus [40] = test: Antibacterial activity against methicillin-resistant Staphylococcus aureus CGMCC1.12409 infected in mouse model assessed as reduction in inflammation in skin tissues at 5 to 10 mg/kg measured for 5 days by H and E staining based analysis; type: functional, organism-based; settings: dose 5-10 mg/kg, time 5.0 day

COc1ccc2[nH]c3c(CC[C@H](C)[C@H]4CC[C@H]5[C@@H]6[C@H](O)C[C@@H]7C[C@H](O)CC[C@]7(C)[C@H]6C[C@H](O)[C@]45C)[n+](Cc4ccc(Cl)cc4)ccc3c2c1.[Br-]
inactive: Activity (Staphylococcus aureus [16]) | Activity (Staphylococcus aureus [32]) Not active; Compound Activity Was Higher Than That Of Vancomycin
100%: Activity (Staphylococcus aureus [31])
94.33%: Activity (Staphylococcus aureus [20])
active: Activity (Staphylococcus aureus [2]) | Activity (Staphylococcus aureus [5]) Dose-dependent-effect | Activity (Staphylococcus aureus [8]) Dose-dependent-effect | Activity (Staphylococcus aureus [12]) | Activity (Staphylococcus aureus [13]) | Activity (Staphylococcus aureus [23]) | Activity (Staphylococcus aureus [26]) | Activity (Staphylococcus aureus [30]) | Activity (Staphylococcus aureus [34]) | Activity (Staphylococcus aureus [35]) | Activity (Staphylococcus aureus [38]) | Activity (Staphylococcus aureus [40])
0.5 µg/mL: MIC (Staphylococcus aureus [6]) | MIC (Staphylococcus aureus [7]) | MIC (Staphylococcus aureus [9]) | MIC (Staphylococcus aureus [11]) | MIC (Staphylococcus aureus [14]) | MIC (Staphylococcus aureus [15]) | MIC (Staphylococcus aureus [17]) | MIC (Staphylococcus aureus [18]) | MIC (Staphylococcus aureus [21]) | MIC (Staphylococcus aureus [27]) | MIC (Staphylococcus aureus [29]) | MIC (Staphylococcus aureus [33]) | MIC (Staphylococcus aureus [36]) | MIC (Staphylococcus aureus [37]) | MIC (Staphylococcus aureus [39])
Non-toxic: Activity (HeLa) | Activity (HEK-293T)
1 µg/mL: MIC (Staphylococcus aureus [1]) | MIC (Staphylococcus aureus [3]) | MIC (Staphylococcus aureus [4]) | MIC (Staphylococcus aureus [10]) | MIC (Staphylococcus aureus [19]) | MIC (Staphylococcus aureus [22]) | MIC (Staphylococcus aureus [24]) | MIC (Staphylococcus aureus [25]) | MIC (Staphylococcus aureus [28])
